Assay results from patent US12071441B2, “10-(di(phenyl)methyl)-4-hydroxy-8,9,9A,10-tetrahydro-7H-pyrrolo[1′,2′:4,5]pyrazino[1,2-b]pyridazine-3,5-dione derivatives and related compounds as inhibitors of the orthomyxovirus replication for treating influenza” (Novartis AG, priority 2018, dated 2024).

How the values were obtained:
Assay in all cases: microbe, parasite or virus in culture
Assay type in all cases: cell-based
[1] = test system: influenza A virus minigenome (PB2, PB1, PA, NP; luciferase reporter) in 293T cells, RNP_Alaska; conditions: HEK-293T, 48 h
[2] = test system: influenza A virus minigenome (PB2, PB1, PA, NP; luciferase reporter) in 293T cells, RNP_CAL; conditions: HEK-293T, 48 h, read-out: RNP_CAL_EC50
[3] = test system: influenza A virus minigenome (PB2, PB1, PA, NP; luciferase reporter) in 293T cells, RNP_Hubei; conditions: HEK-293T, 48 h

SMILES	EC50 [1] [nM]	EC50 [2] [nM]	EC50 [3] [nM]
COCCOC(=O)OCOc1c2n(ncc1=O)[C@@H]([C@H](c1cccc(F)c1)c1cccc(F)c1F)[C@H]1CCCN1C2=O [Example 99, (((9aR,10S)-10-((R)-(2,3-difluorophenyl)(3-fluorophenyl)methyl)-3,5-dioxo-3,5,8,9,9a,10-hexahydro-7H-pyrrolo[1′,2′:4,5]pyrazino[1,2-b]pyridazin-4-yl)oxy)methyl (2-methoxyethyl) carbonate]	< 100	< 100	< 100
CN1CCN(C(=O)Oc2c3n(ncc2=O)[C@@H]([C@H](c2cccc(F)c2)c2cccc(F)c2F)[C@H]2CCCN2C3=O)CC1 [Example 100, (9aR,10S)-10-((R)-(2,3-difluorophenyl)(3-fluorophenyl)methyl)-3,5-dioxo-3,5,8,9,9a,10-hexahydro-7H-pyrrolo[1′,2′:4,5]pyrazino[1,2-b]pyridazin-4-yl 4-methylpiperazine-1-carboxylate]	≥ 1000	≥ 1000	100 to 1000
O=C(Oc1c2n(ncc1=O)[C@@H]([C@H](c1cccc(F)c1)c1cccc(F)c1F)[C@H]1CCCN1C2=O)N1CCC(N2CCCCC2)CC1 [Example 102, (9aR,10S)-10-((R)-(2,3-difluorophenyl)(3-fluorophenyl)methyl)-3,5-dioxo-3,5,8,9,9a,10-hexahydro-7H-pyrrolo[1′,2′:4,5]pyrazino[1,2-b]pyridazin-4-yl [1,4′-bipiperidine]-1′-carboxylate]	≥ 1000	≥ 1000	≥ 1000
COC(=O)C(C)(C)OC(=O)OCOc1c2n(ncc1=O)[C@@H]([C@H](c1cccc(F)c1)c1cccc(F)c1F)[C@H]1CCCN1C2=O [Example 104, methyl 2-((((((9aR,10S)-10-((R)-(2,3-difluorophenyl)(3-fluorophenyl)methyl)-3,5-dioxo-3,5,8,9,9a,10-hexahydro-7H-pyrrolo[1′,2′:4,5]pyrazino[1,2-b]pyridazin-4-yl)oxy)methoxy)carbonyl)oxy)-2-methylpropanoate]	100 to 1000	100 to 1000	100 to 1000
CC(=O)Oc1c2n(ncc1=O)[C@@H]([C@H](c1cccc(F)c1)c1cccc(F)c1F)[C@H]1CCCN1C2=O [Example 105, (9aR,10S)-10-((R)-(2,3-difluorophenyl)(3-fluorophenyl)methyl)-3,5-dioxo-3,5,8,9,9a,10-hexahydro-7H-pyrrolo[1′,2′:4,5]pyrazino[1,2-b]pyridazin-4-yl acetate]	< 100	< 100	< 100
CCC(=O)Oc1c2n(ncc1=O)[C@@H]([C@H](c1cccc(F)c1)c1cccc(F)c1F)[C@H]1CCCN1C2=O [Example 106, (9aR,10S)-10-((R)-(2,3-difluorophenyl)(3-fluorophenyl)methyl)-3,5-dioxo-3,5,8,9,9a,10-hexahydro-7H-pyrrolo[1′,2′:4,5]pyrazino[1,2-b]pyridazin-4-yl propionate]	< 100	< 100	< 100
CC(C)C(=O)Oc1c2n(ncc1=O)[C@@H]([C@H](c1cccc(F)c1)c1cccc(F)c1F)[C@H]1CCCN1C2=O [Example 107, (9aR,10S)-10-((R)-(2,3-difluorophenyl)(3-fluorophenyl)methyl)-3,5-dioxo-3,5,8,9,9a,10-hexahydro-7H-pyrrolo[1′,2′:4,5]pyrazino[1,2-b]pyridazin-4-yl isobutyrate]	< 100	< 100	< 100
CC(C)C(=O)OCOc1c2n(ncc1=O)[C@@H]([C@H](c1cccc(F)c1)c1cccc(F)c1F)[C@H]1CCCN1C2=O [Example 108, (((9aR,10S)-10-((R)-(2,3-difluorophenyl)(3-fluorophenyl)methyl)-3,5-dioxo-3,5,8,9,9a,10-hexahydro-7H-pyrrolo[1′,2′:4,5]pyrazino[1,2-b]pyridazin-4-yl)oxy)methyl isobutyrate]	< 100	< 100	< 100
CC(C)CC(=O)Oc1c2n(ncc1=O)[C@@H]([C@H](c1cccc(F)c1)c1cccc(F)c1F)[C@H]1CCCN1C2=O [Example 110, (9aR,10S)-10-((R)-(2,3-difluorophenyl)(3-fluorophenyl)methyl)-3,5-dioxo-3,5,8,9,9a,10-hexahydro-7H-pyrrolo[1′,2′:4,5]pyrazino[1,2-b]pyridazin-4-yl 3-methylbutanoate]	< 100	< 100	< 100
COCCC(=O)Oc1c2n(ncc1=O)[C@@H]([C@H](c1cccc(F)c1)c1cccc(F)c1F)[C@H]1CCCN1C2=O [Example 112, (9aR,10S)-10-((R)-(2,3-difluorophenyl)(3-fluorophenyl)methyl)-3,5-dioxo-3,5,8,9,9a,10-hexahydro-7H-pyrrolo[1′,2′:4,5]pyrazino[1,2-b]pyridazin-4-yl 3-methoxypropanoate]	< 100	< 100	< 100
CC(=O)OCOc1c2n(ncc1=O)[C@@H]([C@H](c1cccc(F)c1)c1cccc(F)c1F)[C@H]1CCCN1C2=O [Example 114, (((9aR,10S)-10-((R)-(2,3-difluorophenyl)(3-fluorophenyl)methyl)-3,5-dioxo-3,5,8,9,9a,10-hexahydro-7H-pyrrolo[1′,2′:4,5]pyrazino[1,2-b]pyridazin-4-yl)oxy)methyl acetate]	< 100	< 100	< 100
COC(=O)Oc1c2n(ncc1=O)[C@@H]([C@H](c1cccc(F)c1)c1cccc(F)c1F)[C@H]1CCCN1C2=O [Example 115, (9aR,10S)-10-((R)-(2,3-difluorophenyl)(3-fluorophenyl)methyl)-3,5-dioxo-3,5,8,9,9a,10-hexahydro-7H-pyrrolo[1′,2′:4,5]pyrazino[1,2-b]pyridazin-4-yl methyl carbonate]	< 100	< 100	< 100
Cc1oc(=O)oc1COc1c2n(ncc1=O)[C@@H]([C@H](c1cccc(F)c1)c1cccc(F)c1F)[C@H]1CCCN1C2=O [Example 116, (9aR,10S)-10-((R)-(2,3-difluorophenyl)(3-fluorophenyl)methyl)-4-((5-methyl-2-oxo-1,3-dioxol-4-yl)methoxy)-8,9,9a,10-tetrahydro-7H-pyrrolo[1′,2′:4,5]pyrazino[1,2-b]pyridazine-3,5-dione]	< 100	< 100	< 100
